Reference: patent US4548925A, “Antibiotic M43A, pharmaceutical composition and method of use” (Eli Lilly and Company, priority 1984, dated 1985)
Converted amounts (≈) assume the structure as drawn.

Key:
Escherichia coli TEM = experiment: In vitro MIC, standard agar-dilution assay; format: cell-based; details: M43A phosphate salt, vancomycin free base
[1] = system: Streptococcus sp. group D 9960; details: agar dilution, M43A phosphate salt, vancomycin free base
Staphylococcus aureus = experiment: Experimental bacterial infection in mice, ED50; format: in vivo; details: subcutaneous, two doses, dose protecting 50% of animals
[2] = system: Staphylococcus aureus V41; experiment: In vitro MIC, standard agar-dilution assay; format: cell-based; details: M43A phosphate salt, vancomycin free base
Escherichia coli EC14 = experiment: In vitro MIC, standard agar-dilution assay; format: cell-based; details: M43A phosphate salt, vancomycin free base
[3] = system: Staphylococcus aureus X400; experiment: In vitro MIC, standard agar-dilution assay; format: cell-based; details: M43A phosphate salt, vancomycin free base
Escherichia coli N10 = experiment: In vitro MIC, standard agar-dilution assay; format: cell-based; details: M43A phosphate salt, vancomycin free base
[4] = system: Klebsiella pneumoniae X26; experiment: In vitro MIC, standard agar-dilution assay; format: cell-based; details: M43A phosphate salt, vancomycin free base
[5] = system: Fusobacterium symbiosum 1470; experiment: Susceptibility of anaerobic isolates, agar-dilution MIC; format: cell-based; details: read after 24 hrs incubation
Experimental: (§1) . | ^a MIC's were determined by the agardilution method; endpoints were
(§2) read after 24hrs. incubation.

[6] = system: Bacteroides thetaiotaomicron 1438; experiment: as above; format: cell-based; details: read after 24 hrs incubation
Experimental: as §1, §2

[7] = system: Bacteroides corrodens 1874; experiment: as above; format: cell-based; details: read after 24 hrs incubation
Experimental: as §1, §2

[8] = system: Eubacterium aerofaciens 1235; experiment: as above; format: cell-based; details: read after 24 hrs incubation
Experimental: as §1, §2

[9] = system: Bacteroides fragilis 1936B; experiment: as above; format: cell-based; details: read after 24 hrs incubation
Experimental: as §1, §2

[10] = system: Clostridium septicum 1128; experiment: as above; format: cell-based; details: read after 24 hrs incubation
Experimental: as §1, §2

[11] = system: Peptococcus asaccharolyticus 1302; experiment: as above; format: cell-based; details: read after 24 hrs incubation
Experimental: as §1, §2

[12] = system: Propionibacterium acnes 79; experiment: as above; format: cell-based; details: read after 24 hrs incubation
Experimental: as §1, §2

Bacteroides fragilis 111 = experiment: as above; format: cell-based; details: read after 24 hrs incubation
Experimental: as §1, §2

[13] = system: Bacteroides melaninogenicus 1856/28; experiment: as above; format: cell-based; details: read after 24 hrs incubation
Experimental: as §1, §2

[14] = system: Bacteroides fragilis 1877; experiment: as above; format: cell-based; details: read after 24 hrs incubation
Experimental: as §1, §2

[15] = system: Clostridium difficile 2994; experiment: as above; format: cell-based; details: read after 24 hrs incubation
Experimental: as §1, §2

[16] = system: Bacteroides melaninogenicus 2736; experiment: as above; format: cell-based; details: read after 24 hrs incubation
Experimental: as §1, §2

[17] = system: Fusobacterium necrophorum 6054A; experiment: as above; format: cell-based; details: read after 24 hrs incubation
Experimental: as §1, §2

Peptococcus prevoti 1281 = experiment: as above; format: cell-based; details: read after 24 hrs incubation
Experimental: as §1, §2

[18] = system: Peptostreptococcus anaerobius 1428; experiment: as above; format: cell-based; details: read after 24 hrs incubation
Experimental: as §1, §2

[19] = system: Bacteroides vulgatis 1211; experiment: as above; format: cell-based; details: read after 24 hrs incubation
Experimental: as §1, §2

[20] = system: Peptostreptococcus intermedius 1264; experiment: as above; format: cell-based; details: read after 24 hrs incubation
Experimental: as §1, §2

[21] = system: Klebsiella pneumoniae KAE; experiment: In vitro MIC, standard agar-dilution assay; format: cell-based; details: M43A phosphate salt, vancomycin free base
[22] = system: Clostridium perfringens 81; format: cell-based; details: agar dilution, read after 24 hrs incubation
Streptococcus pyogenes = experiment: Experimental bacterial infection in mice, ED50; format: in vivo; details: subcutaneous, two doses, dose protecting 50% of animals
[23] = system: Haemophilus influenzae C.L.; experiment: In vitro MIC, standard agar-dilution assay; format: cell-based; details: M43A phosphate salt, vancomycin free base
Streptococcus pneumoniae = experiment: Experimental bacterial infection in mice, ED50; format: in vivo; details: subcutaneous, two doses, dose protecting 50% of animals
[24] = system: Staphylococcus aureus NRRL B313; experiment: In vitro MIC, standard agar-dilution assay; format: cell-based; details: M43A phosphate salt, vancomycin free base
[25] = system: Streptococcus faecium ATCC 9790; details: agar dilution, M43A phosphate salt, vancomycin free base
[26] = system: Haemophilus influenzae 76; experiment: In vitro MIC, standard agar-dilution assay; format: cell-based; details: M43A phosphate salt, vancomycin free base
[27] = system: Streptococcus pyogenes C203; experiment: In vitro MIC, standard agar-dilution assay; format: cell-based; details: M43A phosphate salt, vancomycin free base
[28] = system: Klebsiella pneumoniae X68; experiment: In vitro MIC, standard agar-dilution assay; format: cell-based; details: M43A phosphate salt, vancomycin free base

Compound: CN[C@H](CC(C)C)C(=O)N[C@H]1C(=O)N[C@@H](CC(N)=O)C(=O)N[C@H]2C(=O)N[C@H]3C(=O)N[C@H](C(=O)N[C@H](C(=O)O)c4cc(O)cc(O)c4-c4cc3ccc4O)[C@H](O)c3ccc(c(Cl)c3)Oc3cc2cc(c3O[C@@H]2O[C@H](CO)[C@@H](O)[C@H](O)[C@H]2O[C@H]2C[C@](C)(N)[C@H](O)[C@H](C)O2)Oc2ccc(cc2Cl)[C@H]1O [Vancomycin]
- MIC (Escherichia coli TEM): > 128 µg/mL
- MIC [1]: 4 µg/mL
- E50 (Staphylococcus aureus): 1.62 mg/kg/2
- MIC [2]: 1 µg/mL
- MIC (Escherichia coli EC14): > 128 µg/mL
- MIC [3]: 1 µg/mL
- MIC (Escherichia coli N10): > 128 µg/mL
- MIC [4]: > 128 µg/mL
- MIC [5]: 2 µg/mL (≈ 1.38 µM)
- MIC [6]: 16 µg/mL (≈ 11 µM)
- MIC [7]: 32 µg/mL (≈ 22.1 µM)
- MIC [8]: 16 µg/mL (≈ 11 µM)
- MIC [9]: 32 µg/mL (≈ 22.1 µM)
- MIC [10]: 4 µg/mL (≈ 2.76 µM)
- MIC [11]: 2 µg/mL (≈ 1.38 µM)
- MIC [12]: 2 µg/mL (≈ 1.38 µM)
- MIC (Bacteroides fragilis 111): 64 µg/mL (≈ 44.2 µM)
- MIC [13]: > 128 µg/mL
- MIC [14]: 32 µg/mL (≈ 22.1 µM)
- MIC [15]: 2 µg/mL (≈ 1.38 µM)
- MIC [16]: 8 µg/mL (≈ 5.52 µM)
- MIC [17]: 2 µg/mL (≈ 1.38 µM)
- MIC (Peptococcus prevoti 1281): 2 µg/mL (≈ 1.38 µM)
- MIC [18]: 2 µg/mL (≈ 1.38 µM)
- MIC [19]: 16 µg/mL (≈ 11 µM)
- MIC [20]: 4 µg/mL (≈ 2.76 µM)
- MIC [21]: > 128 µg/mL
- MIC [22]: 1 µg/mL (≈ 0.69 µM)
- E50 (Streptococcus pyogenes): 1.2 mg/kg/2
- MIC [23]: 128 µg/mL
- E50 (Streptococcus pneumoniae): 1.47 mg/kg/2
- MIC [24]: 1 µg/mL
- MIC [25]: 1 µg/mL
- MIC [26]: 32 µg/mL
- MIC [27]: 1 µg/mL
- MIC [28]: > 128 µg/mL
